Publication PMC9663686, “Proline, hydroxyproline, and pyrrolidone carboxylic acid derivatives as highly efficient but reversible transdermal permeation enhancers” (Scientific Reports, 2022)
Marks after values point to notes of the source that are not given here.

How the values were obtained:
[1] = system: HaCaT spontaneously immortalized human keratinocytes; assay: Neutral red (NR) uptake cell viability assay, HaCaT; assay type: cell-based; conditions: 48-h incubation, mean ± SEM, read-out: IC50, HaCaT cells, NR assay
From the text: (§1) Next, the in vitro toxicities of the most promising enhancers Pro3 and Pro4, along with the parent Pro2, on spontaneously immortalized human keratinocytes (HaCaT) and Swiss albino mouse embryonic fibroblasts (3T3) were studied (Fig. 3). […] The cellular toxicities were further probed using the 3-(4,5-dimethylthiazol-2-yl)-2,5-diphenyltetrazolium bromide (MTT) uptake assay, based on the transformation of yellow MTT into purple formazan by mitochondrial reductases of living cells. The MTT assay also yielded toxicity values in tens of µM with trends to higher toxicity with a longer acyl chain length (thus also higher lipophilicity) of enhancers (Fig. 3).
(§2) Cell viability was determined via 3-(4,5-dimethylthiazol-2-yl)-2,5-diphenyltetrazolium bromide (MTT) and neutral red (NR) uptake assays after 48-h incubation with the enhancers (see Supplementary data for details).
(§3) Both cell lines were cultivated in Dulbecco’s modified Eagle’s medium (DMEM, Lonza, Basel, Switzerland) supplemented with 10% heat-inactivated fetal bovine serum (Merck, Darmstadt, Germany), 10 mM HEPES buffer (Merck, Darmstadt, Germany), and 1% penicillin/streptomycin solution (Lonza, Basel, Switzerland) in 75-cm^2 tissue culture flasks (TPP, Trasadingen, Switzerland) at 37°C in a humidified atmosphere of 5% CO2. Subconfluent cells were sub-cultured every 3-4 days.
For toxicity studies, the stock-solutions of studied compounds were prepared in dimethyl sulfoxide (DMSO). These stock samples were diluted to the required concentration by the cell culture medium immediately before adding them onto the cells. The amount of DMSO applied to the cells was kept under its intrinsic measurable toxicity limit (below 1 vol.%). […]
Another approach used for the toxicity assessment was the neutral red (NR) uptake assay. […] The plates were shaken at rt for 30 min, and the optical density of the soluble NR was measured at λ = 540 nm using a Tecan Infinite 200 M plate reader.
(§4) The viability of each experimental group was expressed as the percentage of the untreated controls incubated under the same conditions (100%).

[2] = system: HaCaT spontaneously immortalized human keratinocytes; assay: MTT cell viability assay, HaCaT; assay type: cell-based; conditions: 48-h incubation, mean ± SEM, read-out: IC50, HaCaT cells, MTT assay
From the text: as §1, §2, §3
(§5) For toxicity studies, the stock-solutions of studied compounds were prepared in dimethyl sulfoxide (DMSO). […]
(§6) After 48-h incubation with the studied enhancer, cell viability was determined via 3-(4,5-dimethylthiazol-2-yl)-2,5-diphenyltetrazolium bromide (MTT) uptake assay based on the transformation of yellow MTT into purple formazan by mitochondrial reductase activity of living cells. […] Afterward, the cell viability was assessed by optical density measurement using a Tecan Infinite 200 M plate reader (Tecan, Grödig, Austria) at λ = 570 nm.
as §4

human skin = assay: Transepidermal water loss (TEWL) of human skin in vitro, reversibility; conditions: for TEWL 1 h after the sample had been removed / TEWL 4 h after the sample had been removed / TEWL 8 h after the sample had been removed / TEWL 12 h after the sample had been removed / TEWL 24 h after the sample had been removed: 24-h application of 1% enhancer (1% Azone, 5% SDS) in 60% PG; for TEWL 1 h after the sample had been removed / TEWL 4 h after the sample had been removed / TEWL 8 h after the sample had been removed / TEWL 12 h after the sample had been removed / TEWL 24 h after the sample had been removed / TEWL before sample application (baseline): mean ± SEM; for TEWL values after 24-h treatment (range over the three enhancers): 1% in 60% PG, baseline around 27 g/m^2/h; for time after enhancer removal for TEWL to decline to values similar to baseline: after 24-h application of 1% enhancer in 60% PG
From the text: We further investigated the direct effects of the selected enhancers on the skin barrier assessed by TEWL and the electrical impedance of human skin in vitro. TEWL is a method commonly used in dermatology[38] to study, for example, the irritant potential of chemicals, skin barrier recovery, or effect of topical formulations, and permeation enhancers[17],[21],[41]–[44]. Electrical impedance measures the opposition of the skin to alternating electrical current and is inversely proportional to the flux of ions. Thus, increased TEWL or decreased impedance indicates a barrier impairment[45],[46]. Electrical impedance or conductance measurements have been used to screen new enhancers or assess the irritation potential of compounds[13],[15],[17],[21],[32],[44],[47]–[50]. Both TEWL and impedance can distinguish between reversible and irreversible effects of enhancers on skin permeability[17],[21],[40],[44],[51].
Human skin was mounted in Franz diffusion cells in the same way as for the permeation studies. After 1-h equilibration, basal TEWL and impedance values were recorded. Then, 1% enhancer in 60% PG, 60% PG as a negative control, 1% Azone in 60% PG, or 5% SDS in 60% PG as positive (irreversible) controls was applied on the skin (100 µl/cm^2) for 24 h. The residual sample was washed with PBS and gently blotted dry. At 1, 4, 8, 12, and 24 h after sample removal, TEWL, and impedance values were recorded. TEWL was measured using AquaFlux AF 200 (Biox Systems Ltd, London, UK), employing the condenser-chamber measurement method at 26 ± 1.0 °C and 43 ± 3% relative air humidity. Electrical impedance was measured by LCR meter 4080 (Conrad electronic, Hirschau, Germany, measuring range 20 Ω–10 MΩ, error at kΩ values < 0.5%) operated in parallel mode with an alternating frequency of 120 Hz, which was also used in our previous work[21],[44].
Samples were removed from the skin after 24 h, and TEWL and impedance values were recorded in predetermined time intervals (1, 4, 8, 12, and 24 h after sample removal). Data are presented as the means ± SEM; n ≥ 3. * statistically significant difference compared to the baseline value before the sample application at p < 0.05. ^+ statistically significant compared to the value 1 h after the sample removal at p < 0.05.^ ≠ statistically significant compared to the control (60% PG without enhancer) at the same time point, at p < 0.05.

3T3 mouse fibroblasts = assay: MTT cell viability assay, 3T3; assay type: cell-based; conditions: NIH3T3, 48-h incubation, mean ± SEM, read-out: IC50, 3T3 cells, MTT assay
From the text: as §1, §2, §3, §5, §6, §4

Structure (SMILES)	IC50 [1]	IC50 [2]	TEWL 1 h after the sample had been removed (human skin)	TEWL 4 h after the sample had been removed (human skin)	TEWL 8 h after the sample had been removed (human skin)	TEWL 12 h after the sample had been removed (human skin)	TEWL 24 h after the sample had been removed (human skin)	TEWL values after 24-h treatment (range over the three enhancers) (human skin)	reversibility of TEWL increase (human skin; after 24-h application, followed 24 h after removal)	TEWL before sample application (baseline) (human skin)	IC50 (3T3 mouse fibroblasts)	time after enhancer removal for TEWL to decline to values similar to baseline (human skin)
CCCCCCCCCCCCOC(=O)C1CCCN1C(C)=O (stereo not drawn) [Pro2, N-acetyl proline dodecyl ester]	98.1 ± 4.49 µM	53.2 ± 3.19 µM	65.4 ± 1.5*^≠ g/m^2/h	56.0 ± 1.3*^≠ g/m^2/h	45.9 ± 1.5*^≠+ g/m^2/h	42.5 ± 2.5*^≠+ g/m^2/h	41.8 ± 1.0*^≠+ g/m^2/h	50–65 g/m^2/h	only partly reversible within 24 h	25.0 ± 3.0 g/m^2/h	92.4 ± 2.82 µM	
CCCCCCCCCCCCOC(=O)C1CCCN1C(=O)CC (stereo not drawn) [Pro3]	74.4 ± 1.75 µM	32.7 ± 2.48 µM	59.4 ± 5.6*^≠ g/m^2/h	47.1 ± 1.7*^≠+ g/m^2/h	36.5 ± 1.1^+ g/m^2/h	30.2 ± 2.2^+ g/m^2/h	27.4 ± 2.2^+ g/m^2/h	50–65 g/m^2/h		27.5 ± 6.3 g/m^2/h	84.4 ± 1.5 µM	≤ 8 h
CCCCCCCCCCCCOC(=O)C1CCCN1C(=O)CCC (stereo not drawn) [Pro4]	54.6 ± 1.11 µM	33.2 ± 2.02 µM	49.9 ± 5.2*^≠ g/m^2/h	39.4 ± 2.5*^+ g/m^2/h	30.5 ± 1.3^+ g/m^2/h	26.3 ± 1.8^+ g/m^2/h	25.0 ± 2.8^+ g/m^2/h	50–65 g/m^2/h		27.3 ± 4.1 g/m^2/h	63.9 ± 1.91 µM	≤ 8 h
